# From US20250059264A1, “METHOD OF TREATING STROKE” (AlaMab Therapeutics, Inc., priority 2023, published 2025)
# Assays:
# [1] = test system: rat model of stroke induced by middle cerebral artery occlusion (MCAO); assay: Brain volume (Example 3); format: in vivo, SD rats; settings: 10 mg/kg (table label) i.v. Bid from 30 min after infarction; 48 h after reperfusion
# Procedure: (§1) The administration of the respective treatments was started 30 minutes after the MCAO procedure of the rats.
# (§2) Seventy-two (72) SD rats received behavioral training after adaptive feeding period and before the operation to establish stroke models. The behavioral training included beam-walking, grip and rotarod tests. The experimental rats were then randomly divided into 6 groups according to the body weight, with 12 rats in each test group as described in Table 15.
# (§3) The rats were fasted overnight before modeling and were anesthetized with isoflurane. Right middle cerebral artery occlusion (MCAO) was induced in each rat using the intraluminal filament technique to mimic focal cerebral ischemic stroke. After 2 hrs, reperfusion was allowed by removing the occlusion.
# (§4) Administration of each treatment was performed 0.5 h after the infarction. The rats were scored by the Longa method at 24-hours post-procedure. The neurological function was evaluated at 24-hr and 48-hr after reperfusion, and was assessed by beam-walking, grip strength, and rotarod tests. At 48 h after reperfusion, the whole brain tissue of all rats was harvested to assess the cerebral infarct area by TTC staining, as well as to measure brain volume and brain water content, two indicators of acute cerebral edema.
# [2] = test system: mouse model of stroke induced by middle cerebral artery occlusion (MCAO); assay: Grip strength, time of treatment (Example 2); format: in vivo, ICR mice
# Procedure: (§5) The administration of 10 mg/kg butylphthalide and 50 mg/kg ALMB-0166 was started 30 minutes, 2 hours, or 6 hours after the MCAO procedure of the mice. Ninety-six (96) ICR mice received behavioral training after adaptive feeding period and before the operation to establish stroke models. The behavioral training included beam-walking and rotarod test. The experimental mice were then randomly divided into 8 groups according to the values of the body weight, with 12 mice in each test group as described in Table 1. The mice were fasted overnight before modeling and were anesthetized with isoflurane. Right middle cerebral artery occlusion (MCAO) was induced in mice using the intraluminal filament technique to mimic focal cerebral ischemic stroke. After 1 hr, reperfusion was allowed by removing the occlusion. Administration of each treatment was performed 0.5 hrs, 2 hrs, or 6 hrs after the infarction. The neurological function score was evaluated at 24 hrs and 48 hrs after reperfusion, as was assessed by beam-walking, grip strength, and rotarod tests. At 48 hrs after reperfusion, the whole brain tissue of all rats was harvested to assess the cerebral infarct area by TTC staining, as well as to measure brain volume and brain water content, two indicators of acute cerebral edema.
# [3] = test system: rat model of stroke induced by middle cerebral artery occlusion (MCAO); assay: Grip strength (Example 3); format: in vivo, SD rats; settings: 10 mg/kg (table label) i.v. Bid from 30 min after infarction
# Procedure: as §1, §2, §3, §4
# [4] = test system: mouse model of stroke induced by middle cerebral artery occlusion (MCAO); assay: Grip strength (Example 1); format: in vivo, ICR mice; settings: 10 mg/kg i.v. Bid from 30 min after infarction
# Procedure: (§6) The administration of the respective treatments was started 30 minutes after the MCAO procedure of the mice.
# (§7) Seventy-two (72) ICR mice received behavioral training after adaptive feeding period and before the operation to establish stroke models. The behavioral training included beam-walking and rotarod test. The experimental mice were then randomly divided into 6 groups according to the values of the body weight, with 12 mice in each test group as described in Table 1.
# as §3, with “mice” for “rats”, “mice” for “each rat”, “1 hr,” for “2 hrs,”, “occlusion. During the operation, a white light was used to maintain the mouse rectal temperature between 36.5° C.-37.0° C.” for “occlusion.”
# as §4, with “The” for “The rats were scored by the Longa method at 24-hours post-procedure. The”, “function score” for “function”, “at 24 hrs” for “at 24-hr”, “and 48 hrs” for “and 48-hr”, “reperfusion, as” for “reperfusion, and”
# [5] = test system: mouse model of stroke induced by middle cerebral artery occlusion (MCAO); assay: Rotarod test, time of treatment (Example 2); format: in vivo, ICR mice
# Procedure: as §5
# [6] = test system: rat model of stroke induced by middle cerebral artery occlusion (MCAO); set-up: species or system SD rats; settings: in vivo
# Procedure: The first administration of the respective treatments was started 30 minutes (Day 1 of study) after the MCAO procedure of the rats. For the butylphthalide group, subsequent doses were administered every day after for 14 days. For the ALMB-0166 test groups, a second dose of the antibody was administered at Day 4 post-stroke (Day 4 of the study). Thirty-six (36) SD rats received behavioral training after adaptive feeding period and before the operation to establish stroke models. The behavioral training included beam-walking, grip and rotarod tests. The experimental rats were then randomly divided into 6 groups according to the body weight, with 6 rats in each test group as described in Table 15. The rats were fasted overnight before modeling and were anesthetized with isoflurane. […] The body weight of rats was recorded before the operation (Day 0 of study) and on Days 2, 4, 7, and 11 after the procedure. The rats were scored by the Longa method at Day 1 (24-hours) post-procedure. The neurological function was evaluated at Days 1, 2, 4, 7, and 14 after the procedure, and was assessed by beam-walking, grip strength, and rotarod tests. […] The total infarct volume was determined, and the infarct volume ratio was calculated by dividing the total infarct volume by the whole brain volume. […]
# [7] = test system: rat model of stroke induced by middle cerebral artery occlusion (MCAO); assay: Beam-walking test (Example 3); format: in vivo, SD rats; settings: 10 mg/kg (table label) i.v. Bid from 30 min after infarction
# Procedure: as §1, §2, §3, §4
# [8] = test system: rat model of stroke induced by middle cerebral artery occlusion (MCAO); assay: Rotarod test (Example 3); format: in vivo, SD rats; settings: 10 mg/kg (table label) i.v. Bid from 30 min after infarction
# Procedure: as §1, §2, §3, §4
# [9] = test system: rat model of stroke induced by middle cerebral artery occlusion (MCAO); assay: Brain water content (Example 3); format: in vivo, SD rats; settings: 10 mg/kg (table label) i.v. Bid from 30 min after infarction; 48 h after reperfusion
# Procedure: as §1, §2, §3, §4
# [10] = test system: mouse model of stroke induced by middle cerebral artery occlusion (MCAO); assay: Cerebral infarct volume by TTC staining (Example 1); format: in vivo, ICR mice; settings: 10 mg/kg i.v. Bid from 30 min after infarction, 48 h after reperfusion
# Procedure: as §6, §7
# as §3, with “mice” for “rats”, “mice” for “each rat”, “1 hr,” for “2 hrs,”, “occlusion. During the operation, a white light was used to maintain the mouse rectal temperature between 36.5° C.-37.0° C.” for “occlusion.”
# as §4, with “The” for “The rats were scored by the Longa method at 24-hours post-procedure. The”, “function score” for “function”, “at 24 hrs” for “at 24-hr”, “and 48 hrs” for “and 48-hr”, “reperfusion, as” for “reperfusion, and”
# [11] = test system: rat model of stroke induced by middle cerebral artery occlusion (MCAO); assay: Beam-walking test, dosing regimen (Example 4); format: in vivo, SD rats; settings: 10 mg/kg (table label) i.v. Bid from 30 min after infarction
# Procedure: The first administration of the respective treatments was started 30 minutes (Day 1 of study) after the MCAO procedure of the rats. For the butylphthalide group, subsequent doses were administered every day after for 14 days. For the ALMB-0166 test groups, a second dose of the antibody was administered at Day 4 post-stroke (Day 4 of the study). Thirty-six (36) SD rats received behavioral training after adaptive feeding period and before the operation to establish stroke models. The behavioral training included beam-walking, grip and rotarod tests. The experimental rats were then randomly divided into 6 groups according to the body weight, with 6 rats in each test group as described in Table 15. The rats were fasted overnight before modeling and were anesthetized with isoflurane. Right middle cerebral artery occlusion (MCAO) was induced in each rat using the intraluminal filament technique to mimic focal cerebral ischemic stroke. After 2 hrs, reperfusion was allowed by removing the occlusion. Administration of butylphthalide was performed 0.5 hrs after the infarction, and every day after the operation (14 days). Administration of ALMB-0166 and the vehicle treatment was performed at 0.5 hrs and at Day 4 after the operation. The body weight of rats was recorded before the operation (Day 0 of study) and on Days 2, 4, 7, and 11 after the procedure. The rats were scored by the Longa method at Day 1 (24-hours) post-procedure. The neurological function was evaluated at Days 1, 2, 4, 7, and 14 after the procedure, and was assessed by beam-walking, grip strength, and rotarod tests. At Day 14 after reperfusion, the whole brain tissue of all rats was harvested to assess the cerebral infarct area by TTC staining. The total infarct volume was determined, and the infarct volume ratio was calculated by dividing the total infarct volume by the whole brain volume. For calculating the infarct volume rate, the difference in infarct volume ratio between the model group and the corresponding administration group was divided by the infarct volume ratio of the model group.
# [12] = test system: mouse model of stroke induced by middle cerebral artery occlusion (MCAO); assay: Beam-walking test (Example 1); format: in vivo, ICR mice; settings: 10 mg/kg i.v. Bid from 30 min after infarction
# Procedure: as §6, §7
# as §3, with “mice” for “rats”, “mice” for “each rat”, “1 hr,” for “2 hrs,”, “occlusion. During the operation, a white light was used to maintain the mouse rectal temperature between 36.5° C.-37.0° C.” for “occlusion.”
# as §4, with “The” for “The rats were scored by the Longa method at 24-hours post-procedure. The”, “function score” for “function”, “at 24 hrs” for “at 24-hr”, “and 48 hrs” for “and 48-hr”, “reperfusion, as” for “reperfusion, and”
# [13] = test system: mouse model of stroke induced by middle cerebral artery occlusion (MCAO); assay: Brain volume, time of treatment (Example 2); format: in vivo, ICR mice; settings: 48 h after reperfusion
# Procedure: as §5
# [14] = 10 mg/kg i.v. once 0.5 hr after infarction, 24 h
# [15] = 10 mg/kg i.v. once 0.5 hr after infarction, 48 h
# [16] = 10 mg/kg i.v. once 2 hr after infarction, 24 h
# [17] = 10 mg/kg i.v. once 2 hr after infarction, 48 h
# [18] = 10 mg/kg i.v. once 6 hr after infarction, 24 h
# [19] = 10 mg/kg i.v. once 6 hr after infarction, 48 h
compound,measurement,setting,value
CCCCC1OC(=O)c2ccccc21 (stereo not drawn) [Butylphthalide],Brain volume,[1],1.597 ± 0.11 mL
same,Grip Strength,[2]; [14],203.13 ± 35.30 g
same,Grip Strength,[2]; [15],196.04 ± 41.72 g
same,Grip Strength,[2]; [16],199.41 ± 38.48 g
same,Grip Strength,[2]; [17],186.33 ± 44.64 g
same,Grip Strength,[2]; [18],187.08 ± 53.81 g
same,Grip Strength,[2]; [19],168.16 ± 66.94 g
same,Grip Strength,[3]; 24 h,404.73 g
same,Grip Strength,[3]; 48 h,419.93 g
same,Grip Strength,[4]; 24 h,206.29 ± 46.55^ g
same,Grip Strength,[4]; 48 h,214.71 ± 34.19 g
same,"Rotarod test score, Time",[5]; [14],151.83 s
same,"Rotarod test score, Time",[5]; [15],193.25 s
same,"Rotarod test score, Time",[5]; [16],124.67 s
same,"Rotarod test score, Time",[5]; [17],171.67 s
same,"Rotarod test score, Time",[5]; [18],121.42 s
same,"Rotarod test score, Time",[5]; [19],98.00 s
same,Body weight compared to model test group,[6],No statistically significant difference
same,Beam-walking time,[7]; 24 h,38.91 s
same,Beam-walking time,[7]; 48 h,45.80 s
same,"Rotarod test score, Time",[8]; 24 h,69.83 s
same,"Rotarod test score, Time",[8]; 48 h,86.42 s
same,Brain water content,[9],1282.00 mg
same,Brain water ratio,[9],78.80%
same,Cerebral Infarction Volume,[10],27.29 ± 13.07 %
same,Improvement rate of infarction,[10]; vs model,43.02%
same,Beam-walking time,[11]; Day 0,23.13 s
same,Beam-walking time,[11]; Day 2,28.31 s
same,Beam-walking time,[11]; Day 4,43.23 s
same,Beam-walking time,[11]; Day 7,35.65 s
same,Beam-walking time,[11]; Day 14,16.01 s
same,Beam-walking time,[12]; 24 h,41.27 ± 21.52 s
same,Beam-walking time,[12]; 48 h,41.92 ± 22.83 s
same,Brain volume,[13]; 10 mg/kg i.v. once 0.5 hr after infarction,0.403 ± 0.04 mL
same,Brain volume,[13]; 10 mg/kg i.v. once 2 hr after infarction,0.407 ± 0.02 mL
same,Brain volume,[13]; 10 mg/kg i.v. once 6 hr after infarction,0.427 ± 0.03 mL
